Laboratory results reported in patent US20230125810A1, “DESIGNED BACTERIAL COMPOSITIONS AND USES THEREOF” (Seres Therapeutics, Inc., priority 2019, published 2023).
Read-outs that look alike come from different tables or passages of the source.

Key:
[1] = system: clinical remission of ulcerative colitis; format: in vivo, human; conditions: UC patients treated with HHSP
[2] = system: TNF-α-driven IL-8 secretion by HT29 epithelial cells; test: Anti-inflammatory assay in IECs (TNF-α-driven IL-8 secretion); format: cell-based, human; conditions: 1 hour pre-treatment
[3] = system: HDAC enzymes (HeLa nuclear extract); test: HDAC inhibition assay (HDAC-Glo I/II, HeLa nuclear extract); format: biochemical; conditions: for HDAC Inhibition in any C source (25/18% cutoff): single strain supernatants, PY medium with one of seven C sources
[4] = system: AhR-mediated cyp1a1 expression; test: AhR-mediated cyp1a1 expression in epithelial colonic organoids
Protocol: In FIG. 7A, the metabolites (3-indole acetic acid, 3-methylindole, indole, indoleacrylate, 3-indole butyric acid, and indolepropionic acid, IPA) were added at three different concentrations (50, 100, and 200 μM), with increasing concentrations from right to left. Untreated epithelial organoids (Untd) were used as a negative control. In FIG. 7B, supernatants were collected from cultures containing different bacteria (Clostridium sporogenes 1, Clostridium sporogenes 2, Peptostreptococcus stomatis, Clostridium glycolicum, Bacteroides sp. 4 1 36) and were provided to the epithelial organoids at two different concentrations (5% and 2% final concentration), with the left bar corresponding to the higher concentration. The SCFAs and tryptophan metabolites present in each supernatant (from FIGS. 17 and 18) are indicated. IPA: indolepropionic acid; IAcryl: Indole acrylate; 3Mind: 3-methylindole; I3Carb: indole-3-carbinol; C3: propionate; C4: butyrate; C5: valerate; C6: hexanoate; BCFA: branch chain fatty acids.
AhR activation is reportedly associated with strengthening of the intestinal epithelial barrier and mucosal homeostasis in the intestine by inducing broad changes in gene expression. […] An increase in Cyp1a1 expression is considered to be a specific measure of AhR-mediated gene expression.

[5] = GC-MS of SCFAs, MCFAs, BCFAs and tryptophan metabolites in bacterial supernatants; conditions: single strain supernatants
Text: FIG. 18 provides a table listing bacterial species and the short chain fatty acids (SCFAs), medium chain fatty acids (MCFAs), and branched chain fatty acids (BCFAs) produced by each of the species. […] The limit of detection for each of the fatty acids is provided in the row labeled “Limit of Detection (LOD).” The SCFAs measured included: acetic acid, propanoic acid, and butanoic acid. The MCFAs measured included: pentanoic acid, hexanoic acid, heptanoic acid. The BCFAs measured included: 2-methyl-propanopic acid, 3-methyl-butanoic acid, and 4-methyl-pentaoic acid.
FIG. 19 provides a table listing bacterial species and tryptophan metabolites produced by the species. […] The limit of detection for each of the fatty acids is provided in the row labeled “Limit of Detection (LOD).” The tryptophan metabolites measured included: indole, 3-methylindole, indol-3-propanoic acid, indole-3-butyric acid, 3-indoleacrylic acid, tryptamine, indole-3-acetic acid, 3-indole-glycoxylic acid, 2-picolinic acid, and 5-hydroxytryptamine.
As described supra, certain tryptophan (Trp) metabolites were associated with remission in patients treated with an HHSP. […] The presence of the tryptophan metabolites was determined using a colorimetric assay for detection of indolic compounds (Indole Reagent, Anaerob Systems). […]

[6] = system: primary human colon epithelial cell monolayer; test: Primary epithelial cell monolayer barrier integrity assay (IFN-γ, FITC-dextran); conditions: 5 mM
Protocol: The assays were performed using a primary epithelial cell monolayer barrier integrity assay. […] The addition of interferon-gamma (IFN-γ) disrupts the tight junctions of the epithelial monolayer and induces apoptosis of epithelial cells. The leakiness of the membrane can be assessed by adding FITC-dextran to the apical side of the apparatus and measuring how rapidly it can pass to the basolateral compartment. A leaky monolayer will allow FITC-dextran to the basal side of the apparatus more quickly than a monolayer with an intact monolayer.
Briefly, the barrier integrity assay was conducted as follows. Primary human colon organoid cultures established from isolated colon crypts were grown and expanded in Matrigel® (Corning) and 50% L-cell conditioned medium containing Wnt3a, R-spondin 3 and Noggin (L-WRN) as described by VanDussen et al. containing 10 uM Y-27632 and 10 uM SB43152 (Gut 64:911-920, 2015). […] After the 48-hour incubation, colonic epithelial monolayer permeability was assessed by adding 10 μL of 10 ng/ml FITC-Dextran (4 kDa, Sigma) to the apical interface, the organoids were incubated for 1 hour and then 100 μL of medium was collected from the basolateral compartment of each transwell and transferred to a 96 well plate for fluorescence detection.

[7] = intestinal epithelial organoids

Row | Compound | HDAC cluster assignment [3] | HDAC Inhibition in any C source (25/18% cutoff) [3] | other results
1 | Clostridium symbiosum | – | – | Associated Clinical Outcome [1]: Remitter
2 | CCC(=O)O [propionate] | – | – | TNF-α-dependent IL-8 secretion by IECs [2]: reduced levels of TNF-α-dependent IL-8 secretion
3 | Clostridium clostridioforme | 6 | 1 (If a strain exhibits HDACi activity of at least 0.25 in any nutrient, or 0.18 in fucose, it is considered to have HDACi activity and it is marked with “1”) | –
4 | Clostridium sp 7 2 43FAA | – | 1 (If a strain exhibits HDACi activity of at least 0.25 in any nutrient, or 0.18 in fucose, it is considered to have HDACi activity and it is marked with “1”) | HDAC cluster assignment ([3]; pattern of HDAC inhibition across nutrient sources): 5
5 | O=C(O)/C=C/c1c[nH]c2ccccc12 [indoleacrylate] | – | – | AhR-mediated cyp1a1 expression [4, 7]: induced AhR-mediated cyp1a1 expression
6 | Parabacteroides distasonis | 3 | 1 (If a strain exhibits HDACi activity of at least 0.25 in any nutrient, or 0.18 in fucose, it is considered to have HDACi activity and it is marked with “1”) | –
7 | Clostridium bolteae | – | – | Associated Clinical Outcome [1]: Remitter
8 | Cc1c[nH]c2ccccc12 [3-methylindole] | – | – | AhR-mediated cyp1a1 expression ([4]; human): induced AhR-mediated cyp1a1 expression
9 | Clostridium glycolicum | – | – | hexanoate production [5]: Hexanoate producing
10 | c1ccc2[nH]ccc2c1 [indole] | – | – | AhR-mediated cyp1a1 expression [4, 7]: induced AhR-mediated cyp1a1 expression
11 | CC(=O)O [acetate] | – | – | TNF-α-dependent IL-8 secretion by IECs [2]: reduced levels of TNF-α-dependent IL-8 secretion
12 | Clostridium mayombei | 2 | 1 (If a strain exhibits HDACi activity of at least 0.25 in any nutrient, or 0.18 in fucose, it is considered to have HDACi activity and it is marked with “1”) | –
13 | CCCC(=O)O [butyrate] | – | – | decrease of permeability [6]: 50%
14 | Clostridium tertium | 5 | 1 (If a strain exhibits HDACi activity of at least 0.25 in any nutrient, or 0.18 in fucose, it is considered to have HDACi activity and it is marked with “1”) | –
15 | O=C(O)Cc1c[nH]c2ccccc12 [3-indole acetic acid] | – | – | AhR-mediated cyp1a1 expression [4, 7]: induced AhR-mediated cyp1a1 expression
16 | Clostridium disporicum | 0 | 1 (If a strain exhibits HDACi activity of at least 0.25 in any nutrient, or 0.18 in fucose, it is considered to have HDACi activity and it is marked with “1”) | –
